According to patent publication US4170656A, “Compositions containing cis-2-benzoyl-3-hydroxy-crotononitrile used to treat inflammation and joint deterioration” (priority 1978, dated 1979):

How the values were obtained:
[1] = Adjuvant induced arthritis in rats (Freund's adjuvant); type: in vivo, Royal Hart, Wistar strain rats; settings: for Dead/Treated At 21 Days: days 0-13
Description: Groups of three Royal Hart, Wistar strain rats weighing 200±10 grams each were injected intradermally in the right hind paw with Freund's adjuvant (dried human tubercle bacilli in a mineral oil vehicle) at a dose of 2 mg./kg. of body weight. Test compound was administered orally in a 1.5% starch vehicle at various doses once daily on days 0 through 13 post challenge. Control rats were treated in a similar manner, but given only starch vehicle. On the 14th and 21st day post challenge the diameter of the injected paw (primary lesion) was measured by micrometer caliper. The volume of inflamed paws were estimated from these measurements and the results are expressed as percent inhibition of swelling as compared to controls. At the same time, the other inflamed sites, such as ears, paws and tail (seconday lesions) were observed and each rat was graded as to degree of inflammation and swelling present. The grading is based on a scale of 0 to 24, where 0 represents a complete absence of induced arthritic nodules and 24 represents the maximum degree of inflammation. The mean grade for each treated group is calculated and the effects of each compound are expressed as percent inhibition of the control grade. Table I records the results of tests conducted with a typical compound of the present invention and known anti-inflammatory agents.

[2] = Ultraviolet induced erythema in guinea pigs; type: in vivo, Albino guinea pigs; parameters: key: sum of 3 sites, each 0 = none, 0.5 = faint, 1.0 = distinct; max 3.0; settings: maximum 3.0
Description: Albino guinea pigs were depilitated on their flanks, the evening before testing, with a standard mixture of barium sulfide and gum acacia. On the morning of the test, groups of four guinea pigs were dosed by gavage one hour prior (-1 hour) to ultraviolet exposure. At 0 hour they were restrained in a plastic container which allows exposure of 3 circular spots. They were then exposed to ultraviolet irradiation from a "Hanovia" Kromayer lamp, model 10, for 60 seconds. At one and four hours, the degree of erythema for each of the three sites was assessed according to the following scoring system: 0= no erythema, 0.5=incomplete circle or faint erythema, and 1.0=complete circle of distinct erythema. Thus, the maximum score for each animal was 3.0.

[3] = S. Wong et al. (1973); G. R. Bobalick et al. (1974); cited from earlier work
[4] = Carrageenin induced paw edema in rats (acute anti-inflammatory activity); type: in vivo, Royal Hart, Wistar strain rats; settings: 250 mg./kg. by gavage; 5 hours after drug (4 hours after carrageenin); ratio greater than 1.41 is active
Description: In determining the acute anti-inflammatory activity of the cis-2-benzoyl-3-hydroxy-2-alkenonitriles of the present invention, Royal Hart, Wistar strain rats, ranging in weight from 80 to 90 grams were used. The rats were fasted overnight prior to dosing but had free access to water. The test compounds were administered in aqueous suspension, by gavage, in a volume of 1.7 ml. per 50 grams of rat [corresponds to hydration volume used by Winter, et al., Proc. Soc. […] The phlogistic agent used was carrageenin prepared as a sterile 1% suspension in 0.9% aqueous sodium chloride for routine testing. A volume of 0.05 ml. was injected through a 26 gauge needle into the plantar tissue of the right hind paw. Measurements were made 5 hours after drug administration (4 hours after carrageenin challenge). Volumes of both the normal and carrageenin inflammed feet were determined. The difference between the two measurements is considered to be the increased edema due to the carrageenin administration.

## COc1ccc2c(c1)c(CC(=O)O)c(C)n2C(=O)c1ccc(Cl)cc1 [Indomethacin]
[1]; oral 0.25 mg./kg., Day 14
  % Inhibition of Control Grade (secondary lesion): 22%
  % Inhibition of Swelling (primary lesion): 30%
  Mean Weight Gain: 51 grams
[1]; oral 0.25 mg./kg., Day 21
  % Inhibition of Control Grade (secondary lesion): 4%
  % Inhibition of Swelling (primary lesion): 4%
  Mean Weight Gain: 57 grams
[1]; oral 0.25 mg./kg.
  Dead/Treated At 21 Days: 0/9
[1]; oral 0.5 mg./kg., Day 14
  % Inhibition of Control Grade (secondary lesion): 25%
  % Inhibition of Swelling (primary lesion): 40%
  Mean Weight Gain: 53 grams
[1]; oral 0.5 mg./kg., Day 21
  % Inhibition of Control Grade (secondary lesion): 17%
  % Inhibition of Swelling (primary lesion): 20%
  Mean Weight Gain: 51 grams
[1]; oral 0.5 mg./kg.
  Dead/Treated At 21 Days: 5/54
[1]; oral 1 mg./kg., Day 14
  % Inhibition of Control Grade (secondary lesion): 34%
  % Inhibition of Swelling (primary lesion): 46%
  Mean Weight Gain: 63 grams
[1]; oral 1 mg./kg., Day 21
  % Inhibition of Control Grade (secondary lesion): 20%
  % Inhibition of Swelling (primary lesion): 19%
  Mean Weight Gain: 65 grams
[1]; oral 1 mg./kg.
  Dead/Treated At 21 Days: 9/54
[1]; oral 2 mg./kg., Day 14
  % Inhibition of Control Grade (secondary lesion): 38%
  % Inhibition of Swelling (primary lesion): 51%
  Mean Weight Gain: 68 grams
[1]; oral 2 mg./kg., Day 21
  % Inhibition of Control Grade (secondary lesion): 25%
  % Inhibition of Swelling (primary lesion): 24%
  Mean Weight Gain: 68 grams
[1]; oral 2 mg./kg.
  Dead/Treated At 21 Days: 8/57
[2]; oral 3.9 mg./kg., 1 hour
  Erythema Score (avg.): 1.2
[2]; oral 3.9 mg./kg., 4 hours
  Erythema Score (avg.): 2.9
[2]; oral 7.8 mg./kg., 1 hour
  Erythema Score (avg.): 0.6
[2]; oral 7.8 mg./kg., 4 hours
  Erythema Score (avg.): 2.3
[2]; oral 15.6 mg./kg., 1 hour
  Erythema Score (avg.): 0
[2]; oral 15.6 mg./kg., 4 hours
  Erythema Score (avg.): 2.0
[2]; oral 31.3 mg./kg., 1 hour
  Erythema Score (avg.): 0.1
[2]; oral 31.3 mg./kg., 4 hours
  Erythema Score (avg.): 1.9
[2]; oral 62.5 mg./kg., 1 hour
  Erythema Score (avg.): 0
[2]; oral 62.5 mg./kg., 4 hours
  Erythema Score (avg.): 1.3
[2]; oral 125 mg./kg., 1 hour
  Erythema Score (avg.): 0
[2]; oral 125 mg./kg., 4 hours
  Erythema Score (avg.): 1.3
[2]; oral 250 mg./kg., 1 hour
  Erythema Score (avg.): 0
[2]; oral 250 mg./kg., 4 hours
  Erythema Score (avg.): 1.0
[3]
  arthritic paw swelling: inhibit arthritic paw swelling
  joint and bone deterioration: prevent joint and bone deterioration
[4]
  C/T Edema Ratio: 2.9

## C/C(O)=C(\C#N)C(=O)c1ccccc1 [Cis-2-benzoyl-3-hydroxy-crotononitrile, Cis-2-benzoyl-3-hydroxycrotononitrile]
[1]; oral 25 mg./kg., Day 14
  % Inhibition of Control Grade (secondary lesion): 10%
  % Inhibition of Swelling (primary lesion): 26%
  Mean Weight Gain: 37 grams
[1]; oral 25 mg./kg., Day 21
  % Inhibition of Control Grade (secondary lesion): 1%
  % Inhibition of Swelling (primary lesion): 14%
  Mean Weight Gain: 28 grams
[1]; oral 25 mg./kg.
  Dead/Treated At 21 Days: 3/18
[1]; oral 50 mg./kg., Day 14
  % Inhibition of Control Grade (secondary lesion): 14%
  % Inhibition of Swelling (primary lesion): 64%
  Mean Weight Gain: 51 grams
[1]; oral 50 mg./kg., Day 21
  % Inhibition of Control Grade (secondary lesion): 17%
  % Inhibition of Swelling (primary lesion): 54%
  Mean Weight Gain: 45 grams
[1]; oral 50 mg./kg.
  Dead/Treated At 21 Days: 3/36
[1]; oral 100 mg./kg., Day 14
  % Inhibition of Control Grade (secondary lesion): 38%
  % Inhibition of Swelling (primary lesion): 68%
  Mean Weight Gain: 43 grams
[1]; oral 100 mg./kg., Day 21
  % Inhibition of Control Grade (secondary lesion): 46%
  % Inhibition of Swelling (primary lesion): 53%
  Mean Weight Gain: 41 grams
[1]; oral 100 mg./kg.
  Dead/Treated At 21 Days: 5/18
[1]; oral, days 0 through 13
  progression of the arthritis and associated joint deterioration: appears to suppress the progression of the arthritis and associated joint deterioration
[2]; oral 15.6 mg./kg., 1 hour
  Erythema Score (avg.): 2.3
[2]; oral 15.6 mg./kg., 4 hours
  Erythema Score (avg.): 2.5
[2]; oral 31.3 mg./kg., 1 hour
  Erythema Score (avg.): 0.8
[2]; oral 31.3 mg./kg., 4 hours
  Erythema Score (avg.): 2.3
[2]; oral 62.5 mg./kg., 1 hour
  Erythema Score (avg.): 0.8
[2]; oral 62.5 mg./kg., 4 hours
  Erythema Score (avg.): 2.4
[2]; oral 125 mg./kg., 1 hour
  Erythema Score (avg.): 0
[2]; oral 125 mg./kg., 4 hours
  Erythema Score (avg.): 1.3
[4]
  C/T Edema Ratio: 2.3

## CC(=O)Oc1ccccc1C(=O)O [Aspirin]
[1]; oral 50 mg./kg., Day 14
  % Inhibition of Control Grade (secondary lesion): 12%
  % Inhibition of Swelling (primary lesion): 23%
  Mean Weight Gain: 56 grams
[1]; oral 50 mg./kg., Day 21
  % Inhibition of Control Grade (secondary lesion): 9%
  % Inhibition of Swelling (primary lesion): 3%
  Mean Weight Gain: 44 grams
[1]; oral 50 mg./kg.
  Dead/Treated At 21 Days: 2/21
[1]; oral 100 mg./kg., Day 14
  % Inhibition of Control Grade (secondary lesion): 19%
  % Inhibition of Swelling (primary lesion): 36%
  Mean Weight Gain: 48 grams
[1]; oral 100 mg./kg., Day 21
  % Inhibition of Control Grade (secondary lesion): 8%
  % Inhibition of Swelling (primary lesion): 13%
  Mean Weight Gain: 53 grams
[1]; oral 100 mg./kg.
  Dead/Treated At 21 Days: 18/63
[1]; oral 200 mg./kg., Day 14
  % Inhibition of Control Grade (secondary lesion): 26%
  % Inhibition of Swelling (primary lesion): 48%
  Mean Weight Gain: 40 grams
[1]; oral 200 mg./kg., Day 21
  % Inhibition of Control Grade (secondary lesion): 17%
  % Inhibition of Swelling (primary lesion): 27%
  Mean Weight Gain: 44 grams
[1]; oral 200 mg./kg.
  Dead/Treated At 21 Days: 10/66
[1]; oral 400 mg./kg., Day 14
  % Inhibition of Control Grade (secondary lesion): 58%
  % Inhibition of Swelling (primary lesion): 73%
  Mean Weight Gain: 41 grams
[1]; oral 400 mg./kg., Day 21
  % Inhibition of Control Grade (secondary lesion): 45%
  % Inhibition of Swelling (primary lesion): 48%
  Mean Weight Gain: 55 grams
[1]; oral 400 mg./kg.
  Dead/Treated At 21 Days: 18/57
[2]; oral 31.3 mg./kg., 1 hour
  Erythema Score (avg.): 1.2
[2]; oral 31.3 mg./kg., 4 hours
  Erythema Score (avg.): 2.3
[2]; oral 62.5 mg./kg., 1 hour
  Erythema Score (avg.): 0.8
[2]; oral 62.5 mg./kg., 4 hours
  Erythema Score (avg.): 2.0
[2]; oral 125 mg./kg., 1 hour
  Erythema Score (avg.): 0.1
[2]; oral 125 mg./kg., 4 hours
  Erythema Score (avg.): 2.0
[2]; oral 250 mg./kg., 1 hour
  Erythema Score (avg.): 0.1
[2]; oral 250 mg./kg., 4 hours
  Erythema Score (avg.): 1.2
[4]
  C/T Edema Ratio: 2.8

## CCCCC1C(=O)N(c2ccccc2)N(c2ccccc2)C1=O [Phenylbutazone]
[1]; oral 18.8 mg./kg., Day 14
  % Inhibition of Control Grade (secondary lesion): 4%
  % Inhibition of Swelling (primary lesion): 31%
  Mean Weight Gain: 50 grams
[1]; oral 18.8 mg./kg., Day 21
  % Inhibition of Control Grade (secondary lesion): 8%
  % Inhibition of Swelling (primary lesion): 7%
  Mean Weight Gain: 45 grams
[1]; oral 18.8 mg./kg.
  Dead/Treated At 21 Days: 2/21
[1]; oral 37.5 mg./kg., Day 14
  % Inhibition of Control Grade (secondary lesion): 18%
  % Inhibition of Swelling (primary lesion): 56%
  Mean Weight Gain: 53 grams
[1]; oral 37.5 mg./kg., Day 21
  % Inhibition of Control Grade (secondary lesion): 13%
  % Inhibition of Swelling (primary lesion): 14%
  Mean Weight Gain: 53 grams
[1]; oral 37.5 mg./kg.
  Dead/Treated At 21 Days: 5/39
[1]; oral 75 mg./kg., Day 14
  % Inhibition of Control Grade (secondary lesion): 27%
  % Inhibition of Swelling (primary lesion): 62%
  Mean Weight Gain: 51 grams
[1]; oral 75 mg./kg., Day 21
  % Inhibition of Control Grade (secondary lesion): 15%
  % Inhibition of Swelling (primary lesion): 28%
  Mean Weight Gain: 50 grams
[1]; oral 75 mg./kg.
  Dead/Treated At 21 Days: 2/39
[1]; oral 150 mg./kg., Day 14
  % Inhibition of Control Grade (secondary lesion): 54%
  % Inhibition of Swelling (primary lesion): 75%
  Mean Weight Gain: 40 grams
[1]; oral 150 mg./kg., Day 21
  % Inhibition of Control Grade (secondary lesion): 31%
  % Inhibition of Swelling (primary lesion): 44%
  Mean Weight Gain: 50 grams
[1]; oral 150 mg./kg.
  Dead/Treated At 21 Days: 2/27
[2]; oral 7.8 mg./kg., 1 hour
  Erythema Score (avg.): 1.1
[2]; oral 7.8 mg./kg., 4 hours
  Erythema Score (avg.): 2.9
[2]; oral 15.6 mg./kg., 1 hour
  Erythema Score (avg.): 0.4
[2]; oral 15.6 mg./kg., 4 hours
  Erythema Score (avg.): 2.3
[2]; oral 31.3 mg./kg., 1 hour
  Erythema Score (avg.): 0.4
[2]; oral 31.3 mg./kg., 4 hours
  Erythema Score (avg.): 1.7
[2]; oral 62.5 mg./kg., 1 hour
  Erythema Score (avg.): 0.3
[2]; oral 62.5 mg./kg., 4 hours
  Erythema Score (avg.): 0.9
[2]; oral 125 mg./kg., 1 hour
  Erythema Score (avg.): 0.1
[2]; oral 125 mg./kg., 4 hours
  Erythema Score (avg.): 1.1
[2]; oral 250 mg./kg., 1 hour
  Erythema Score (avg.): 0
[2]; oral 250 mg./kg., 4 hours
  Erythema Score (avg.): 0.5
[4]
  C/T Edema Ratio: 2.3
